According to patent publication US10987407B2, “Methods and compositions for treating hypoglycemic disorders” (priority 2007, dated 2021):
“Also recorded” adds a separate entry of the source. Read-outs that look alike come from different tables or passages of the source. Marks after values point to notes of the source that are not given here.

Key:
SUR-1−/− mice [1] = experiment: Fasting blood glucose during continuous subcutaneous exendin-(9-39) infusion in SUR-1−/− mice; type: in vivo, mouse; settings: 150 pmol/kg/min s.c. pump, day 3, mean±SEM, vehicle 63.2±4.9
Description: (§1) SUR-1^−/− mice were kindly provided by Dr. Mark A. Magnuson. The generation and genotyping of SUR-1^−/− mice were previously described (8). Mice are maintained in a C57Bl/6 genetic background. Twelve to eighteen week SUR-1^−/− and wild-type littermatte control mice were used in all experiments. Mice were maintained on a 12:12-h light-dark cycle and were fed a standard rodent chow diet. All procedures were approved and carried out according to the University of Pennsylvania Institutional Animal Care and Use Committee guidelines. […]
(§2) For determination of fasting blood glucose levels mice were fasted for 12-16 hours. […] Blood glucose levels were measured using a hand-held glucose meter (FreeStyle; TheraSense, Alameda, Calif.). Insulin and glucagon were measured by ELISA (Mouse Endocrine Immunoassay Panel; Linco Research, Inc., St. Charles, Mo.).
(§3) Twelve-18 week old male SUR-1^−/− and wildtype littermates underwent a baseline evaluation including fasting blood glucose measurements and oral glucose tolerance testing, followed by randomization to treatment with exendin-(9-39) (150 pmol/kg/min) or vehicle (0.9% NaCl, 1% BSA). Fasting blood glucose levels were determined after an overnight fast on days 3 and 7 of the infusion. In addition, oral glucose tolerance and insulin sensitivity were evaluated during treatment. […]

SUR-1−/− islets [2] = experiment: Cytosolic free Ca2+ measurement (Fura-2) in islets; type: cell-based, mouse
Protocol: Mouse islets were isolated and cultured on poly-[…] coated glass coverslips under the same conditions as described above. The perifusion procedure and cytosolic-free Ca2+([Ca2+]i) measurement were described previously (24). In brief, the coverslip with attached islets was incubated with 15 μM Fura-2 acetoxymethylester (Molecular Probes, Eugene, Oreg.) in Krebs-Ringer bicarbonate buffer with 5 mM glucose for 35 min at 37° C. Islets were then perifused with Krebs-Ringer bicarbonate buffer with 0.25% bovine serum albumin at 37° C. at a flow rate of 2 mL/min, while various agents were applied. [Ca2+]i was measured with a dual wavelength fluorescence microscope as previously described. The effect of exendin-(9-39) on the characteristically elevated intracellular calcium concentration of SUR-1^-/- islets was studied. […] As previously reported, amino acids caused a transient further rise in intracellular calcium.

[3] = tested on: wild-type littermate control mice; experiment: Fasting blood glucose during continuous subcutaneous exendin-(9-39) infusion in wild-type littermates; type: in vivo, mouse; settings: 150 pmol/kg/min s.c. pump
Description: as §1, §2, §3

SUR-1−/− mice [4] = experiment: Oral glucose tolerance test in SUR-1−/− mice; type: in vivo, mouse
Protocol: (§4) Alzet mini-osmotic pumps (model 2002; Alza, Palo Alto, Calif.) were implanted subcutaneously to deliver exendin-(9-39) (Bachem Bioscience, King of Prussia, Pa.) at a rate of 150 pmol/kg/min or vehicle (0.9% NaCl/1% BSA) for 2 weeks. For determination of fasting blood glucose levels mice were fasted for 12-16 hours. Oral glucose tolerance testing was carried after a 12-16 hour fast by administering 2 g/kg of dextrose by oral gavage (feeding needles; Popper and Sons, Inc., Hyde Park, N.Y.). For insulin tolerance testing mice received 0.5 units/kg of insulin intraperitoneally after a 4 hour fast. Blood glucose levels were measured using a hand-held glucose meter (FreeStyle; TheraSense, Alameda, Calif.). Insulin and glucagon were measured by ELISA (Mouse Endocrine Immunoassay Panel; Linco Research, Inc., St. Charles, Mo.).

SUR-1−/− islets [5] = experiment: Insulin secretion in static incubations of isolated islets; type: cell-based, mouse
SUR-1−/− islets [6] = experiment: cAMP content in static incubations of isolated islets; type: cell-based, mouse
Protocol: Islets were isolated as above, hand-picked and cultured for three days. Cultured islets were preincubated in glucose free Krebs-Ringer bicarbonate buffer for 60 min, 100 nM exendin-(9-39) was added 30 min into the preincubation period. Then, islets were exposed to different treatments for an additional 30 min in the presence of 0.1 mM isobutyl-methylzanthine (IBMX). After incubation, islets were washed 2 times by cold glucose-free Hank's buffer. cAMP was measured in islet lysates by ELISA (GE/Amersham Biosciences, Piscataway, N.J.). The effect of exendin-(9-39) on cAMP was determined in static incubations of isolated islets.

wild-type littermates = experiment: Oral glucose tolerance test in wild-type littermates; type: in vivo, mouse; settings: wild-type littermates during treatment
Protocol: as §4

SUR-1−/− islets [7] = experiment: Perifusion of isolated islets with amino acid ramp, insulin release; type: cell-based, mouse
Protocol: Islets were isolated by collagenase digestion and cultured for 3 days in RPMI 1640 medium containing 10 mM glucose. The culture medium was supplemented with 10% fetal bovine serum, 2 mM glutamine, 100 units/mL penicillin, and 50 μg/mL streptomycin. Islets were incubated at 37° C. in a 5% CO2, 95% air-humidified incubator. Batches of 100 cultured mouse islets were loaded onto a nylon filter in a chamber and perifused with Krebs-Ringer bicarbonate buffer (115 mM NaCl, 24 mM NaHCO3, 5 mM KCl, 1 mM MgCl2, 2.5 mM CaCl2), 10 mM HEPES, pH 7.4) with 0.25% bovine serum albumin at a flow rate of 2 mL/min. Perifusate solutions were gassed with 95% 02, 5% CO2 and maintained at 37° C. Islets were stimulated with a ramp of amino acids. […] Insulin was measured by radioimmunoassay (Linco Research Inc., St. Charles, Mo.).
Given the observed in vivo effects on insulin secretion but not insulin sensitivity, it was next determined whether exendin-(9-39) exerts a direct effect on SUR-1^−/− islet function. […]

[8] = tested on: subject with congenital hyperinsulinism due to a mutation in ABCC8; experiment: Intravenous exendin-(9-39) infusion in fasting subjects with congenital hyperinsulinism; type: in vivo, human
Protocol: After an overnight fast, subject received an intravenous infusion of 0.9% NaCl for 60 min followed by a 6 hour intravenous infusion of exendin-(9-39) at ascending doses every 120 min (100 pmol/kg/min for 120 min, then 300 pmol/kg/min for 120 min and then 500 pmol/kg/min for 120 min). On the second day, 0.9% NaCl was infused intravenously after an overnight fast for a total of 7 hours.
Blood samples for glucose, insulin, C-peptide, glucagon and GLP-1 were obtained at different intervals during the infusions.

SUR-1−/− mice [9] = experiment: Fasting hormonal profile (insulin, glucagon, insulin/glucose ratio) during treatment; type: in vivo, mouse
Protocol: as §4

[10] = tested on: SUR-1−/− and wild-type mice; experiment: Insulin tolerance test (insulin sensitivity); type: in vivo, mouse; settings: any of the treatment groups; 0.5 units/kg insulin i.p.
Protocol: as §4, with “Mo.). To determine the mechanism of action for the effect of exendin-(9-39) on fasting blood glucose levels insulin sensitivity was assessed by an insulin tolerance test.” for “Mo.).”

[11] = fasting HI subject, i.v. ascending doses
[12] = among the treatment groups, during treatment

exendin-(9-39)
Fasting blood glucose levels (SUR-1−/− mice [1]): 82.2 ± 6.3 mg/dL | Basal intracellular calcium (SUR-1−/− islets [2]): did not impact | Amino acid-stimulated rise in intracellular calcium (SUR-1−/− islets [2]; amino acids 4 mM): no effect | Basal intracellular calcium (SUR-1−/− islets [2]; listed as Exendin-(9-39)): did not affect | Fasting blood glucose levels vs vehicle-treated wild type controls [3]: not different | Glucose tolerance (oral, 2 g/kg) (SUR-1−/− mice [4]; SUR-1−/− mice during treatment): did not significantly impair; also recorded: did not influence | Return to baseline blood glucose levels after oral glucose (SUR-1−/− mice [4]; SUR-1−/− mice, 120 minute time point): minor delay | Insulin Secretion (SUR-1−/− islets [5]; 100 nM exendin-(9-39) with 4 mM AAM, AAM alone 389±17): 219±14 ng/100 islets/30 min | Insulin Secretion (SUR-1−/− islets [5]; 100 nM exendin-(9-39) with 4 mM AAM, AAM alone 389±17, listed as Exendin-(9-39)): 219 ± 14 ng/100 islets/30 min | Insulin Secretion (SUR-1−/− islets [5]; baseline, 100 nM exendin-(9-39), baseline without 221±22): 126±12 ng/100 islets/30 min | Insulin Secretion (SUR-1−/− islets [5]; baseline, 100 nM exendin-(9-39), baseline without 221±22, listed as Exendin-(9-39)): 126 ± 12 ^a ng/100 islets/30 min | cAMP Content (SUR-1−/− islets [6]; 100 nM exendin-(9-39) with 4 mM amino acid mixture (AAM)): 20.9±4.4 pmol/100 islets | cAMP Content (SUR-1−/− islets [6]; 100 nM exendin-(9-39) with 4 mM amino acid mixture (AAM), listed as Exendin-(9-39)): 52.5 ± 9.4 ^c pmol/100 islets | cAMP Content (SUR-1−/− islets [6]; basal, 100 nM exendin-(9-39), no exogenous GLP-1, baseline 40.1±4.2): 20.5±2.3 pmol/100 islets | cAMP Content (SUR-1−/− islets [6]; basal, 100 nM exendin-(9-39), no exogenous GLP-1, baseline 40.1±4.2, listed as Exendin-(9-39)): 20.5 ± 2.3 ^a pmol/100 islets | Glucose tolerance (oral, 2 g/kg) (wild-type littermates): no effect | Insulin release in response to amino acid ramp stimulation (SUR-1−/− islets [7]; 100 nM exendin-(9-39), amino acid mixture 0-12 mM): blocked | Insulin response to KCl (SUR-1−/− islets [7]; presence vs absence of exendin-(9-39)): similar | Fasting blood glucose levels ([8]; another 2 human subjects): elevation | Blood glucose levels during infusion ([8]; fasting HI subject, i.v. 100, 300, 500 pmol/kg/min each 120 min, saline infusion dropped below 60): above 80 mg/dL | Fasting hypoglycemia [8, 11]: prevented | Plasma insulin [8, 11]: suppressed | Insulin/glucose ratio (SUR-1−/− mice [9]; SUR-1−/− mice, exendin-(9-39) treatment vs WT): normalized | Fasting glucagon levels (SUR-1−/− mice [9]; [12]): not different | Fasting insulin levels (SUR-1−/− mice [9]; [12]): not different | Peripheral insulin sensitivity (insulin tolerance test) [10]: did not impact; also recorded: did not influence
